This is an account of results in the pKa sets of Baltruschat and Czodrowski (2020).

Each structure is given as a SMILES string.

`CC(C)C(=O)C(C)(C)CN(C)C`: the pKa (commonly the negative logarithm of the acid dissociation constant) (basic group) was 9.3.

Where the note is “basic group”, `CCN(CC)CC(O)C[NH+](CC)CC` showed a pKa of 7.74.

As to `[NH3+]C(CC(=O)[O-])C(=O)NC(CC(=O)O)C(=O)[O-]` (stereo not given), the pKa (acidic group) is 4.7. In the case of `O=C(Cc1ccncc1)c1ccccc1`, the pKa by setting is: (acidic group) 12.7; (basic group) 4.63. Regarding `Cc1cc(-c2cccc[nH+]2)nn1C`, for the setting “basic group”, the pKa was -1.6. Under “basic group”, `CCCCCCCCNCCC(=O)[O-]` gave a pKa of 10.6.

Molecule `CN[C@@H]1[C@@H](C)[C@@H]1[NH2+]C` yielded a pKa (basic group) of 3.68. For the molecule `O=[N+]([O-])c1ccc2cccnc2c1O`, the pKa (basic group) came to 1.94. The molecule `CC(=O)CN=O` had a pKa (acidic group) of 8.4.

For `CC(C)CCC[NH+](C)CCCNC(=O)/C=N/O`, the pKa (acidic group) was found to be 8.72. For the molecule `COCCN(C)C`, where the note is “basic group”, the pKa came to 8.96. The same measure, in the same setting: the same measure for `Cc1ccc2nc3c(c(N4CCOCC4)c2c1)CCC3`: 7.18. Take `C[n+]1cc(O)ccn1`: the pKa (acidic group) was determined as 1.74. Still for that read-out and setting: the same measure for `O=C(O)C1CC[NH2+]C1` (stereo not given): 3.38; for `O=c1nc([O-])c2ncn([C@H]3O[C@@H](CO)[C@H](O)[C@@H]3O)c2[nH]1`: 13. Regarding `CN(C)c1ccc(Br)cc1`, the pKa (basic group) is 4.25. In turn, `NC(=S)Nc1cccc(Cl)c1` showed a pKa (acidic group) of 12. Regarding `CSc1ccc(N)c(I)c1`, the pKa (basic group) amounted to 2.45. In the case of `Cc1cccc(-n2nnnc2N)c1`, the pKa (basic group) was 1.08. In the case of `CSc1nc2cc3c(cc2[nH]1)CCCC3`, the pKa runs as follows: (acidic group) 13; (basic group) 5. As to `CN(C)C`, where the note is “basic group”, the pKa is 9.96.

`[NH3+]C[C@H](O)C(=O)O` registered a pKa (acidic group) of 2.78. With `c1c(CN2CC[NH2+]CC[NH2+]CC2)n[nH]c1CN1CCNCC[NH2+]CC1`, the pKa (basic group) was determined as 6.08. Turning to `ONc1ccnc2ccccc12`, the pKa (acidic group) was 6.76.

As to `CCC(C)(C)N`, the pKa (basic group) came out at 10.9. Still for that read-out and setting: the same measure for `COc1ccc(CCN)cc1`: 9.79. `CCN(CC)Cc1cc(F)ccc1O` displayed a pKa (acidic group) of 10.8. On the same count and under the same terms, the value for `CC(=O)c1ccc(F)cc1` was 18.5; that for `O=C1OC2C3CC4C2C4(C(=O)O)C13Br` (stereo not given) was 3.5. The molecule `Nc1cccc(-c2cccc(N)n2)n1` showed a pKa (basic group) of 6.7. Still for that read-out and setting: the value for `CCN(CC)CCO` was 9.84. For `COc1ccc(-c2nnn[nH]2)cc1`, for the setting “acidic group”, the pKa worked out at 4.23. With `CN(C)Cc1ccccc1O`, the pKa reads like this: (acidic group) 11; (basic group) 8.6. `CC(C)c1nc2ccccc2[nH]1`: the pKa (basic group) was 6.23. Regarding `C/C=C1/CN2CC[C@]34C(=C(C(=O)OC)[C@H]1C[C@H]23)Nc1ccccc14`, the pKa (basic group) came out at 7.46. In the case of `CN=C(N(C)C)N(C)C`, the pKa (basic group) is 13.8. For the setting “acidic group”, `OCC[n+]1cc(Br)c2ccccc2c1` showed a pKa of 13.1.

Where the note is “acidic group”, `CCCCCCC(=O)NO` gave a pKa of 9.62. As to `Nc1nc([O-])c2ncn([C@@H]3C=C[C@H](CO)C3)c2n1`, the pKa (basic group) came to 9.68. For the molecule `C[n+]1ccccc1S`, the pKa (acidic group) is -1.42.

`C=C(C)C(=O)OCCN(C)C` registered a pKa (basic group) of 8.06. Take `c1ccc2[nH]cnc2c1`: the pKa is 12.6 (acidic group) and 5.51 (basic group). The matching figures for `C/C(=N\O)NO`: 10.8 and 4.95. `NC(=O)c1cc(-c2ccccc2)nnc1NCC[NH+]1CCOCC1`: the pKa (basic group) came to 2.5.

In turn, `OCCN1CC[NH+](CCCN2c3ccccc3Sc3ccc(Cl)cc32)CC1` showed a pKa (basic group) of 3.59. On to `COC(=O)CC(C)=O`, for which the pKa (acidic group) came out at 10.6. `CCCCNc1cc[nH+]c([O-])n1` had a pKa (basic group) of 4.69.

Take `CCc1ccncc1`: where the note is “basic group”, the pKa came to 5.94.

As for `C=CCCN1C[C@H]2C[C@@H](C1)c1cccc([O-])[n+]1C2`, the pKa (basic group) worked out at 7.

In the case of `Cc1cc(O)[nH+]c2c1CCO2`, for the setting “acidic group”, the pKa was 2.42.

`Cc1c([N+](=O)[O-])ccc2c(NCCC[NH+](C)C)ccnc12` came in with a pKa (basic group) of 6.71.

Molecule `C[Si](C)(C)C#CC(=O)O` came in with a pKa (acidic group) of 2.21. The same measure, in the same setting: the same measure for `CCOc1cccc(C(=O)O)c1`: 4.17. Molecule `NCc1ccc([N+](=O)[O-])cc1` came in with a pKa (basic group) of 8.5. On to `O=C(O)c1cc([N+](=O)[O-])ccc1CO`, for which the pKa (acidic group) came to 3.14. Under “basic group”, `CNc1nccn2cc(-c3ccc(S(C)=O)cc3OC)nc12` (stereo not given) had a pKa of 5.36. `N#Cc1cccc(C(=O)O)c1` registered a pKa (acidic group) of 3.6. On the same count and under the same terms, the same measure for `[NH3+]CCCCCCCCC(=O)O`: 4.53; for `Cn1cnc(C(=O)O)c1C(=O)O`: -0.56. Still for that read-out and setting: the value for `CCOC(=O)c1cc(C)[n+](O)c(C)c1` was -0.13. As to `C[C@H](CCCNCc1ccccc1)[C@H]1CC[C@H]2[C@@H]3[C@@H](O)C[C@@H]4C[C@H](O)CC[C@]4(C)[C@H]3CC[C@]12C`, the pKa (basic group) is 9.05. The molecule `CCCCCCC(=O)O` displayed a pKa (acidic group) of 4.86. `CCN(CC)CC(=O)Nc1ccc([N+](=O)[O-])cc1` gave a pKa (basic group) of 8.05. The same measure, in the same setting: the same measure for `COc1ccc2c3c1O[C@H]1CCC[C@H]4[C@@H]([C@@H]2O)N(C)CC[C@]314`: 9.41. For the molecule `Cc1ccc(C(=O)O)o1`, the pKa (acidic group) came out at 3.42.
